melting point: 117 to 118 °C
Compound: CCOP(=O)(OCC)c1ccc(Nc2nc(C3CCCC3)nc3c2ncn3C(C)C)cc1
